{"source": "patent US10376520B2", "about": "“Methods for the treatment of cardiovascular disorders” (Galapagos NV, priority 2015, dated 2019)", "test_system": "Subjects With Active Crohn's Disease", "assay": "LDL determination, Study 5 (Crohn's disease)", "format": "in vivo, human", "conditions": "for [LDL] Median CFB - 10 weeks results: 200 mg q.d. (N = 130)", "source_text": "Double-Blind, Randomized, Placebo-Controlled, Multi-Centre Study to Investigate the Efficacy and Safety of Compound 1 in Subjects With Active Crohn's Disease With Evidence of Mucosal Ulceration.\nThis is a double-blind, randomized, placebo-controlled, multi-centre Phase 2 study to investigate the efficacy and safety of Compound 1 administered once daily for the treatment of active CD with evidence of mucosal ulceration. The pharmacokinetics (including a PK substudy) and pharmacodynamics of Compound 1 and metabolite in CD will also be characterised.\nA total of 180 eligible subjects will be randomized to receive Compound 1 or placebo in addition to their stable background treatment (eg, corticosteroids, aminosalicylates, or CD-related antibiotics). The study will consist of 2 parts, with total treatment duration of 20 weeks. Randomization in Part 1 will be stratified according the subject's previous anti-TNF exposure/response, CRP level at Screening, and oral corticosteroid use at visit Day −1.\nAfter the first 10 weeks of treatment in Part 1, patients will be re-randomized for Part 2 as shown in the diagram below and will be stratified according to the subject's clinical response, previous anti-TNF exposure/response, and oral corticosteroid use at visit Day −1.\nThe following assays were conducted at Eurofins Global Central Laboratory, Bergschot 71, 4817 PA Breda, The Netherlands, and at Quest Diagnostics, Clinical Trials, Quest House, 125-135 Staines Road, Hounslow, Middlesex, TW3 3JB, United Kingdom. The assays for Study 5 were performed at BARC Europe, 3B, Industrie Park, Zwijnaarde, B-9052 Ghent, Belgium.\nThe determination of [LDL]-cholesterol is made using an automated method taking advantage of the selective micellary solubilization of [LDL]-cholesterol by a nonionic detergent and the interaction of a sugar compound and lipoproteins (VLDL and chylomicrons).\nWhen a detergent is included in the enzymatic method for cholesterol determination (cholesterol esterase, cholesterol oxidase coupling reaction), the relative reactivities of cholesterol in the lipoprotein fractions increase in this order: [HDL]<chylomicrons <VLDL <[LDL]. In the presence of Mg^2+, a sugar compound markedly reduces the enzymatic reaction of the cholesterol measurement in VLDL and chylomicrons. The combination of a sugar compound with detergent enables the selective determination of [LDL]-cholesterol in serum. (Friedewald et al., 1972; Rifai et al., 1992)\nHomogeneous enzymatic colorimetric assay.\nIn the presence of peroxidase, the hydrogen peroxide generated reacts with 4-aminoantipyrine and Sodium N-(2-hydroxy-3-sulfopropyl)-3,5-dimethoxyaniline (HSDA) to form a purple-blue dye.\nThe color intensity of this dye is directly proportional to the cholesterol concentration and is measured photometrically.\nHuman serum and plasma samples [LDL] determination was done on a Roche/Hitachi Cobas c 701/702 system which automatically calculate the analyte concentration of each sample. Samples containing precipitates are centrifuged before performing the assay.", "key": {"[1]": {"conditions": "200 mg q.d. continued to week 20, week 2"}, "[2]": {"conditions": "200 mg q.d. continued to week 20, week 4"}, "[3]": {"conditions": "200 mg q.d. continued to week 20, week 6"}, "[4]": {"conditions": "200 mg q.d. continued to week 20, week 10"}, "[5]": {"conditions": "200 mg q.d. continued to week 20, week 12"}, "[6]": {"conditions": "200 mg q.d. continued to week 20, week 16"}, "[7]": {"conditions": "200 mg q.d. continued to week 20, week 20"}, "[8]": {"conditions": "200 mg q.d. week 0 to 10, then 100 mg q.d. (N = 30), week 2"}, "[9]": {"conditions": "200 mg q.d. week 0 to 10, then 100 mg q.d. (N = 30), week 4"}, "[10]": {"conditions": "200 mg q.d. week 0 to 10, then 100 mg q.d. (N = 30), week 6"}, "[11]": {"conditions": "200 mg q.d. week 0 to 10, then 100 mg q.d. (N = 30), week 10"}, "[12]": {"conditions": "200 mg q.d. week 0 to 10, then 100 mg q.d. (N = 30), week 12"}, "[13]": {"conditions": "200 mg q.d. week 0 to 10, then 100 mg q.d. (N = 30), week 16"}, "[14]": {"conditions": "200 mg q.d. week 0 to 10, then 100 mg q.d. (N = 30), week 20"}, "[15]": {"conditions": "200 mg q.d. week 0 to 10, then placebo (N = 23), week 2"}, "[16]": {"conditions": "200 mg q.d. week 0 to 10, then placebo (N = 23), week 4"}, "[17]": {"conditions": "200 mg q.d. week 0 to 10, then placebo (N = 23), week 6"}, "[18]": {"conditions": "200 mg q.d. week 0 to 10, then placebo (N = 23), week 10"}, "[19]": {"conditions": "200 mg q.d. week 0 to 10, then placebo (N = 23), week 12"}, "[20]": {"conditions": "200 mg q.d. week 0 to 10, then placebo (N = 23), week 16"}, "[21]": {"conditions": "200 mg q.d. week 0 to 10, then placebo (N = 23), week 20"}, "[22]": {"conditions": "200 mg q.d. week 0 to 10, to 100 mg q.d. week 10 to 20, week 2"}, "[23]": {"conditions": "200 mg q.d. week 0 to 10, to 100 mg q.d. week 10 to 20, week 4"}, "[24]": {"conditions": "200 mg q.d. week 0 to 10, to 100 mg q.d. week 10 to 20, week 6"}, "[25]": {"conditions": "200 mg q.d. week 0 to 10, to 100 mg q.d. week 10 to 20, week 10"}, "[26]": {"conditions": "200 mg q.d. week 0 to 10, to 100 mg q.d. week 10 to 20, week 12"}}, "data": [{"smiles": "O=C(Nc1nc2cccc(-c3ccc(CN4CCS(=O)(=O)CC4)cc3)n2n1)C1CC1", "note": "[Compound 1, cyclopropanecarboxylic acid {5-[4-(1,1-dioxo-thiomorpholin-4-ylmethyl)-phenyl]-[1,2,4]triazolo[1,5-a]pyridin-2yl}-amide]", "values": [{"measurement": "[LDL] Median CFB - 10 weeks results", "setting": "week 2", "value": -0.050, "unit": "mmol/L"}, {"measurement": "[LDL] Median CFB - 10 weeks results", "setting": "week 4", "value": -0.050, "unit": "mmol/L"}, {"measurement": "[LDL] Median CFB - 10 weeks results", "setting": "week 6", "value": 0.025, "unit": "mmol/L"}, {"measurement": "[LDL] Median CFB - 10 weeks results", "setting": "week 10", "value": 0.160, "unit": "mmol/L"}, {"measurement": "[LDL] Mean CFB - 20 weeks results", "setting": "[1]", "value": 3.14, "unit": "%"}, {"measurement": "[LDL] Median CFB - 20 weeks results", "setting": "[1]", "value": "−2.51", "unit": "%"}, {"measurement": "[LDL] Mean CFB - 20 weeks results", "setting": "[2]", "value": 1.21, "unit": "%"}, {"measurement": "[LDL] Median CFB - 20 weeks results", "setting": "[2]", "value": "−2.16", "unit": "%"}, {"measurement": "[LDL] Mean CFB - 20 weeks results", "setting": "[3]", "value": 0.73, "unit": "%"}, {"measurement": "[LDL] Median CFB - 20 weeks results", "setting": "[3]", "value": "−0.61", "unit": "%"}, {"measurement": "[LDL] Mean CFB - 20 weeks results", "setting": "[4]", "value": 14.77, "unit": "%"}, {"measurement": "[LDL] Median CFB - 20 weeks results", "setting": "[4]", "value": 8.26, "unit": "%"}, {"measurement": "[LDL] Mean CFB - 20 weeks results", "setting": "[5]", "value": 9.98, "unit": "%"}, {"measurement": "[LDL] Median CFB - 20 weeks results", "setting": "[5]", "value": 5.42, "unit": "%"}, {"measurement": "[LDL] Mean CFB - 20 weeks results", "setting": "[6]", "value": 12.35, "unit": "%"}, {"measurement": "[LDL] Median CFB - 20 weeks results", "setting": "[6]", "value": 7.42, "unit": "%"}, {"measurement": "[LDL] Mean CFB - 20 weeks results", "setting": "[7]", "value": 11.56, "unit": "%"}, {"measurement": "[LDL] Median CFB - 20 weeks results", "setting": "[7]", "value": 6.93, "unit": "%"}, {"measurement": "[LDL] Mean CFB - 20 weeks results", "setting": "[8]", "value": -0.02, "unit": "mmol/L"}, {"measurement": "[LDL] Median CFB - 10 weeks results 20 weeks results", "setting": "[8]", "value": -0.05, "unit": "mmol/L"}, {"measurement": "[LDL] Mean CFB - 20 weeks results", "setting": "[9]", "value": 0.00, "unit": "mmol/L"}, {"measurement": "[LDL] Median CFB - 10 weeks results 20 weeks results", "setting": "[9]", "value": -0.10, "unit": "mmol/L"}, {"measurement": "[LDL] Mean CFB - 20 weeks results", "setting": "[10]", "value": 0.00, "unit": "mmol/L"}, {"measurement": "[LDL] Median CFB - 10 weeks results 20 weeks results", "setting": "[10]", "value": 0.04, "unit": "mmol/L"}, {"measurement": "[LDL] Mean CFB - 20 weeks results", "setting": "[11]", "value": 0.10, "unit": "mmol/L"}, {"measurement": "[LDL] Median CFB - 10 weeks results 20 weeks results", "setting": "[11]", "value": 0.17, "unit": "mmol/L"}, {"measurement": "[LDL] Mean CFB - 20 weeks results", "setting": "[12]", "value": 0.10, "unit": "mmol/L"}, {"measurement": "[LDL] Median CFB - 10 weeks results 20 weeks results", "setting": "[12]", "value": 0.19, "unit": "mmol/L"}, {"measurement": "[LDL] Mean CFB - 20 weeks results", "setting": "[13]", "value": 0.01, "unit": "mmol/L"}, {"measurement": "[LDL] Median CFB - 10 weeks results 20 weeks results", "setting": "[13]", "value": -0.05, "unit": "mmol/L"}, {"measurement": "[LDL] Mean CFB - 20 weeks results", "setting": "[14]", "value": 0.01, "unit": "mmol/L"}, {"measurement": "[LDL] Median CFB - 10 weeks results 20 weeks results", "setting": "[14]", "value": 0.04, "unit": "mmol/L"}, {"measurement": "[LDL] Mean CFB - 20 weeks results", "setting": "[15]", "value": 0.037, "unit": "mmol/L"}, {"measurement": "[LDL] Median CFB - 10 weeks results 20 weeks results", "setting": "[15]", "value": 0.02, "unit": "mmol/L"}, {"measurement": "[LDL] Mean CFB - 20 weeks results", "setting": "[16]", "value": -0.017, "unit": "mmol/L"}, {"measurement": "[LDL] Median CFB - 10 weeks results 20 weeks results", "setting": "[16]", "value": 0.05, "unit": "mmol/L"}, {"measurement": "[LDL] Mean CFB - 20 weeks results", "setting": "[17]", "value": 0.085, "unit": "mmol/L"}, {"measurement": "[LDL] Median CFB - 10 weeks results 20 weeks results", "setting": "[17]", "value": 0.09, "unit": "mmol/L"}, {"measurement": "[LDL] Mean CFB - 20 weeks results", "setting": "[18]", "value": 0.077, "unit": "mmol/L"}, {"measurement": "[LDL] Median CFB - 10 weeks results 20 weeks results", "setting": "[18]", "value": 0.03, "unit": "mmol/L"}, {"measurement": "[LDL] Mean CFB - 20 weeks results", "setting": "[19]", "value": 0.105, "unit": "mmol/L"}, {"measurement": "[LDL] Median CFB - 10 weeks results 20 weeks results", "setting": "[19]", "value": 0.12, "unit": "mmol/L"}, {"measurement": "[LDL] Mean CFB - 20 weeks results", "setting": "[20]", "value": 0.222, "unit": "mmol/L"}, {"measurement": "[LDL] Median CFB - 10 weeks results 20 weeks results", "setting": "[20]", "value": 0.08, "unit": "mmol/L"}, {"measurement": "[LDL] Mean CFB - 20 weeks results", "setting": "[21]", "value": 0.205, "unit": "mmol/L"}, {"measurement": "[LDL] Median CFB - 10 weeks results 20 weeks results", "setting": "[21]", "value": 0.11, "unit": "mmol/L"}, {"measurement": "[LDL] Mean CFB - 20 weeks results", "setting": "[22]", "value": 2.17, "unit": "%"}, {"measurement": "[LDL] Median CFB - 20 weeks results", "setting": "[22]", "value": "−1.37", "unit": "%"}, {"measurement": "[LDL] Mean CFB - 20 weeks results", "setting": "[23]", "value": 4.07, "unit": "%"}, {"measurement": "[LDL] Median CFB - 20 weeks results", "setting": "[23]", "value": "−1.98", "unit": "%"}, {"measurement": "[LDL] Mean CFB - 20 weeks results", "setting": "[24]", "value": 2.59, "unit": "%"}, {"measurement": "[LDL] Median CFB - 20 weeks results", "setting": "[24]", "value": 1.25, "unit": "%"}, {"measurement": "[LDL] Mean CFB - 20 weeks results", "setting": "[25]", "value": 5.40, "unit": "%"}, {"measurement": "[LDL] Median CFB - 20 weeks results", "setting": "[25]", "value": 7.46, "unit": "%"}, {"measurement": "[LDL] Mean CFB - 20 weeks results", "setting": "[26]", "value": 5.91, "unit": "%"}, {"measurement": "[LDL] Median CFB - 20 weeks results", "setting": "[26]", "value": 6.39, "unit": "%"}]}]}
